According to patent publication US11926619B2, “Certain pladienolide compounds and methods of use” (EISAI R&D MANAGEMENT CO., LTD., priority 2018, dated 2024):

What was measured:
[1] = tested on: WiDr cells (colon cancer cells; wildtype SF3B1); assay: Cell viability assay (CellTiter-Glo, 72 hr), WiDr cells; format: cell-based; conditions: Homo sapiens; WiDr cells (wildtype SF3B1); read-out: WiDr GI50
Procedure, shortened: (§1)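 Cells at 2000/well were exposed to 9 compound concentrations (0.1% DMSO) in duplicate or triplicate for 72 hr at 37 °C. ATP was read by CellTiter-Glo against a time-zero plate and DMSO control growth. Percent growth/viability was plotted against concentration to give Emax; negative values indicate lethality.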

[2] = tested on: WiDr-R cells (colon cancer cells; chemically-induced SF3B1 R1074H mutant); assay: Cell viability assay (CellTiter-Glo, 72 hr), resistant WiDr-R cells (counter-screen); format: cell-based; conditions: WiDr-R cells (SF3B1 R1074H mutation, resistant); read-out: WiDr-R GI50
Procedure, shortened: as §1

[3] = tested on: Panc 05.04 cells (pancreatic cancer cells; Q699H and K700E mutations in SF3B1); assay: Cell viability assay (CellTiter-Glo, 72 hr), Panc 05.04 cells; format: cell-based; conditions: Panc 05.04 cells (mutant SF3B1); for Emax: maximum achievable response in tested dose range, negative value = cellular lethality, read-out: Panc 05.04 (mt SF3B1 cells) Emax (%); for GI50: read-out: Panc 05.04 (mt SF3B1 cells), GI50
Procedure, shortened: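 Panc 05.04 cells treated 72 hr at 37 °C with 9 compound concentrations (0.1% DMSO), duplicate or triplicate. ATP read by CellTiter-Glo; growth inhibition/viability calculated against a time-zero plate and DMSO control growth. Emax is the maximal response over the tested range, negative values meaning lethality.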

SF3b complexes = biological target: T1, SF3b complexes (Homo sapiens, UniProt O75533+Q7RTV0); assay: Scintillation proximity assay (SPA) with [3H]-labelled pladienolide probe; format: binding; conditions: wt SF3B1, read-out: SPA (wt SF3B1 cells) IC50
T1 construct: endogenous in cells
Procedure: Batch immobilization of anti-SF3B1 antibody (MBL) to anti-mouse PVT SPA scintillation beads (PerkinElmer) was prepared as follows: for every 2.5 mg of nuclear extracts, 5 μg anti-SF3B1 antibody and 1.5 mg of beads were mixed in 150 μl PBS. The antibody-bead mixture was incubated for 30 min at RT and centrifuged at 18,000 g for 5 min. 150 μl PBS was used to resuspend every 1.5 mg antibody-bead mixture. The beads were suspended and added to the prepared nuclear extracts. The slurry was incubated for 2 h at 4° C. with gentle mixing. The beads were then collected by centrifuging at 18,000 g for 5 min, and washed twice with PBS+0.1% Triton X-100. After a final centrifugation step, every 1.5 mg of beads was suspended with 150 μl of PBS. The SF3b complexes were tested for [^3H]-labelled pladienolide probe binding ([^3H]-PB), synthesized as previously described (Kotake et al., 2007). 100 μL binding reactions were prepared with 50 μl bead slurry and by adding varying concentrations of PB or PB—OH, and after 30 min pre-incubation, 2.5 nM [^3H]—PB was added. The mixture was incubated for 30 min, and luminescence signals were read using a MicroBeta2 Plate Counter (PerkinElmer). Prism 6 (Graphpad) was used for non-linear regression curve fitting of the data.

Row | Structure (SMILES) | GI50 [1] | GI50 [2] | Emax [3] | GI50 [3] | IC50 (SF3b complexes)
1 | C/C(=C\C=C\[C@@H](C)COC(=O)N1CCCC1)[C@H]1OC(=O)C[C@H](O)CC[C@@](C)(O)[C@@H](OC(=O)N2CCN(C)CC2)/C=C/[C@@H]1C | 0.00383 µM | > 1 µM | -90.3% | 0.00305 µM | 0.0021 µM
2 | C/C(=C\C=C\C(C)c1ncccn1)[C@H]1OC(=O)C[C@H](O)CC[C@@](C)(O)[C@@H](OC(=O)N2CCN(C3CCCCCC3)CC2)/C=C/[C@@H]1C (stereo partly shown) | 0.0459 µM | > 1 µM | -91.6% | 0.031 µM | 0.0119 µM
3 | C/C(=C\C=C\[C@@H](C)COC(=O)N1CC[C@@H](O)C1)[C@H]1OC(=O)C[C@H](O)CC[C@@](C)(O)[C@@H](OC(=O)N2CCN(C3CCCCCC3)CC2)/C=C/[C@@H]1C | 0.00556 µM | > 1 µM | -84.5% | 0.00551 µM | 0.00766 µM
4 | C/C(=C\C=C\[C@@H](C)COC(=O)N1CCCC1)[C@H]1OC(=O)C[C@H](O)CC[C@H](C)[C@@H](OC(=O)N2CCN(C)CC2)/C=C/[C@@H]1C | 0.00381 µM | > 1 µM | -86% | 0.00136 µM | 0.00296 µM
5 | COC[C@@H]1CCCN1C(=O)OC[C@H](C)/C=C/C=C(\C)[C@H]1OC(=O)C[C@H](O)CC[C@@](C)(O)[C@@H](OC(=O)N2CCN(C3CCCCCC3)CC2)/C=C/[C@@H]1C | 0.0291 µM | > 1 µM | -89.1% | 0.0119 µM | 0.0168 µM
6 | C/C(=C\C=C\[C@H](C)COC(=O)N1CCCC1)[C@H]1OC(=O)C[C@H](O)CC[C@@](C)(O)[C@@H](OC(=O)N2CCN(C3CCCCCC3)CC2)/C=C/[C@@H]1C | 0.0118 µM | 0.862 µM | -93.5% | 0.0117 µM | 0.0116 µM
7 | CC[C@H](O)[C@@H](C)NC(=O)OC[C@H](C)/C=C/C=C(\C)[C@H]1OC(=O)C[C@H](O)CC[C@@](C)(O)[C@@H](OC(C)=O)/C=C/[C@@H]1C | 0.555 µM | > 10 µM | -92.8% | 0.327 µM | 0.0534 µM
8 | C/C(=C\C=C\C(C)c1ccnc(N(C)C)n1)[C@H]1OC(=O)C[C@H](O)CC[C@@](C)(O)[C@@H](OC(=O)N2CCN(C3CCCCCC3)CC2)/C=C/[C@@H]1C (stereo partly shown) | 0.0401 µM | > 10 µM | -94.5% | 0.0983 µM | 0.0161 µM
9 | CC(=O)O[C@H]1/C=C/[C@H](C)[C@@H](/C(C)=C/C=C/[C@@H](C)COC(=O)N2CCCCC2)OC(=O)C[C@H](O)CC[C@@]1(C)O | 0.0497 µM | > 10 µM | -74.6% | 0.0822 µM | 0.015 µM
10 | CC(=O)O[C@H]1/C=C/[C@H](C)[C@@H](/C(C)=C/C=C/[C@@H](C)CO)OC(=O)C[C@H](O)CC[C@@]1(C)O | 4.04 µM | > 10 µM | 47.5% | 6.92 µM | 0.326 µM
11 | CC(=O)O[C@H]1/C=C/[C@H](C)[C@@H](/C(C)=C/C=C/[C@@H](C)c2ccccn2)OC(=O)C[C@H](O)CC[C@@H]1C | 0.421 µM | > 10 µM | 28.1% | 2.89 µM | 0.538 µM
12 | C/C(=C\C=C\[C@@H](C)c1ccccn1)[C@H]1OC(=O)CCCCC[C@@H](OC(=O)N2CCN(C)CC2)/C=C/[C@@H]1C | 0.0671 µM | > 10 µM | -93.5% | 0.0751 µM | 0.0079 µM
13 | C/C(=C\C=C\C(C)(C)COC(=O)N1CCCC1)[C@H]1OC(=O)C[C@H](O)CC[C@@](C)(O)[C@@H](OC(=O)N2CCN(C3CCCCCC3)CC2)/C=C/[C@@H]1C | 0.00346 µM | 0.221 µM | -79.7% | 0.00443 µM | 0.00514 µM
14 | C/C(=C\C=C\[C@@H](C)COC(=O)N1CCC[C@H]1CO)[C@H]1OC(=O)CCCC[C@@](C)(O)[C@@H](OC(=O)N2CCN(C)CC2)/C=C/[C@@H]1C | 0.00174 µM | > 1 µM | -72.3% | 0.00207 µM | 0.00254 µM
15 | C/C(=C\C=C\[C@@H](C)COC(=O)N1CCCC1)[C@H]1OC(=O)CCCC[C@@](C)(O)[C@@H](OC(=O)N2CCN(C)CC2)/C=C/[C@@H]1C | 0.00492 µM | > 1 µM | -91.4% | 0.00238 µM | 0.00167 µM
16 | C/C(=C\C=C\[C@@H](C)c1ccccn1)[C@H]1OC(=O)C[C@H](O)CC[C@H](C)[C@@H](OC(=O)N2CCN(C)CC2)/C=C/[C@@H]1C | 0.0153 µM | > 10 µM | -94.3% | 0.00807 µM | 0.00378 µM
17 | C/C(=C\C=C\[C@@H](C)COC(=O)N1CC[C@@H](O)C1)[C@H]1OC(=O)C[C@H](O)CC[C@H](C)[C@@H](OC(=O)N2CCN(C3CCCCCC3)CC2)/C=C/[C@@H]1C | 0.00827 µM | > 1 µM | -77.8% | 0.0108 µM | 0.00567 µM
18 | COC(=O)CC[C@H](C)/C=C/C=C(\C)[C@H]1OC(=O)C[C@H](O)CC[C@@](C)(O)[C@@H](OC(=O)N2CCN(C3CCCCCC3)CC2)/C=C/[C@@H]1C | 0.103 µM | > 1 µM | -96.9% | 0.0513 µM | 0.00454 µM
19 | C/C(=C\C=C/[C@@H](C)COC(=O)N1CC[C@@H](O)C1)[C@H]1OC(=O)C[C@H](O)CC[C@H](C)[C@@H](OC(=O)N2CCN(C)CC2)/C=C/[C@@H]1C | 0.00451 µM | > 1 µM | -90.4% | 0.00667 µM | 0.00215 µM
20 | C/C(=C\C=C\[C@@H](C)COC(=O)N1CCCC1)[C@H]1OC(=O)C[C@H](O)CC[C@@](C)(O)[C@@H](OC(=O)N2CCN(C3CCCCCC3)CC2)/C=C/[C@@H]1C | 0.00254 µM | > 1 µM | -87.3% | 0.00166 µM | 0.00283 µM
21 | C/C(=C\C=C\[C@H](C)c1ccccn1)[C@H]1OC(=O)C[C@H](O)CC[C@@](C)(O)[C@@H](OC(=O)N2CCC(N3CCCCCC3)CC2)/C=C/[C@@H]1C | 0.00718 µM | > 1 µM | -93.8% | 0.0136 µM | 0.00235 µM
22 | C/C(=C\C=C\C(C)c1cccnc1)[C@H]1OC(=O)C[C@H](O)CC[C@@](C)(O)[C@@H](OC(=O)N2CCN(C3CCCCCC3)CC2)/C=C/[C@@H]1C (stereo partly shown) | 0.0197 µM | > 1 µM | -95.4% | 0.0104 µM | 0.00251 µM
23 | C/C(=C\C=C\[C@@H](C)COC(=O)N1CCC[C@H]1CO)[C@H]1OC(=O)CCCCC[C@@H](OC(=O)N2CCN(C)CC2)/C=C/[C@@H]1C | 0.00252 µM | 0.423 µM | -62.8% | 0.0029 µM | 0.00361 µM
24 | CC(=O)O[C@H]1/C=C/[C@H](C)[C@@H](/C(C)=C/C=C/[C@@H](C)COC(=O)N2CCC2)OC(=O)C[C@H](O)CC[C@@]1(C)O | 0.138 µM | > 10 µM | -91.8% | 0.0447 µM | 0.0107 µM
25 | CC(=O)O[C@H]1/C=C/[C@H](C)[C@@H](/C(C)=C/C=C/[C@@H](C)COC(=O)N2CCN(C)CC2)OC(=O)C[C@H](O)CC[C@@]1(C)O | 0.106 µM | > 1 µM | -88.8% | 0.203 µM | 0.236 µM
26 | C/C(=C\C=C\[C@H](C)c1ccccn1)[C@H]1OC(=O)C[C@H](O)CC[C@@](C)(O)[C@@H](OC(=O)N2CCN(C3CCCCCC3)CC2)/C=C/[C@@H]1C | 0.065 µM | > 1 µM | -90% | 0.0718 µM | 0.00595 µM
27 | C/C(=C\C=C\[C@@H](C)COC(=O)N1CC[C@@H](O)C1)[C@H]1OC(=O)CCCCC[C@@H](OC(=O)N2CCN(C)CC2)/C=C/[C@@H]1C | 0.00859 µM | 2.84 µM | -87% | 0.00648 µM | 0.00542 µM
28 | C/C(=C\C=C\[C@@H](C)COC(=O)N1CCC[C@H]1CO)[C@H]1OC(=O)C[C@H](O)CC[C@@](C)(O)[C@@H](OC(=O)N2CCN(C)CC2)/C=C/[C@@H]1C | 0.0294 µM | > 1 µM | -77.2% | 0.0203 µM | 0.014 µM
29 | C/C(=C\C=C\[C@@H](C)COC(=O)N1CCC[C@H]1CO)[C@H]1OC(=O)CCCCC[C@@H](OC(=O)N2CCN(CC(F)(F)F)CC2)/C=C/[C@@H]1C | 0.0655 µM | > 1 µM | -85.6% | 0.0547 µM | 0.113 µM
